Test results: ChEMBL document CHEMBL5696442, “Discovery of type II inhibitors of TGFβ-activated kinase 1 (TAK1) and mitogen-activated protein kinase kinase kinase kinase 2 (MAP4K2)” (J Med Chem, 2015)
Active and inactive are the calls of the source. No cut-off for these calls is given here.

Legend:
[1] = molecular target: Cyclin-dependent kinase 12 (Homo sapiens) (UniProt Q9NYV4); assay: Inhibition of CRK7 Lys2 labeling site in human Huh-7 cell lysate at 1 uM by KiNativ Profiling analysis relative to control; format: subcellular
[2] = molecular target: Serine/threonine-protein kinase SMG1 (Homo sapiens) (UniProt Q96Q15); assay: Inhibition of SMG1 ATP labeling site harbouring DTVTIHSVGGTITILPTKTKPK in human A-375 cells at 0.05 uM by KiNativ Profiling analysis relative to control; format: cell-based
[3] = molecular target: Serine/threonine-protein kinase mTOR (Homo sapiens) (UniProt P42345); assay: Inhibition of FRAP ATP labeling site in human Huh-7 cells at 10 uM by KiNativ Profiling analysis relative to control; format: cell-based
[4] = molecular target: T1, Mitogen-activated protein kinase kinase kinase kinase 2 (Homo sapiens) (UniProt Q12851); assay: Inhibition of MAP4K2 Lys2 labeling site in human A-375 cells at 0.5 uM by KiNativ Profiling analysis relative to control; format: cell-based
T1 sequence (whole entry): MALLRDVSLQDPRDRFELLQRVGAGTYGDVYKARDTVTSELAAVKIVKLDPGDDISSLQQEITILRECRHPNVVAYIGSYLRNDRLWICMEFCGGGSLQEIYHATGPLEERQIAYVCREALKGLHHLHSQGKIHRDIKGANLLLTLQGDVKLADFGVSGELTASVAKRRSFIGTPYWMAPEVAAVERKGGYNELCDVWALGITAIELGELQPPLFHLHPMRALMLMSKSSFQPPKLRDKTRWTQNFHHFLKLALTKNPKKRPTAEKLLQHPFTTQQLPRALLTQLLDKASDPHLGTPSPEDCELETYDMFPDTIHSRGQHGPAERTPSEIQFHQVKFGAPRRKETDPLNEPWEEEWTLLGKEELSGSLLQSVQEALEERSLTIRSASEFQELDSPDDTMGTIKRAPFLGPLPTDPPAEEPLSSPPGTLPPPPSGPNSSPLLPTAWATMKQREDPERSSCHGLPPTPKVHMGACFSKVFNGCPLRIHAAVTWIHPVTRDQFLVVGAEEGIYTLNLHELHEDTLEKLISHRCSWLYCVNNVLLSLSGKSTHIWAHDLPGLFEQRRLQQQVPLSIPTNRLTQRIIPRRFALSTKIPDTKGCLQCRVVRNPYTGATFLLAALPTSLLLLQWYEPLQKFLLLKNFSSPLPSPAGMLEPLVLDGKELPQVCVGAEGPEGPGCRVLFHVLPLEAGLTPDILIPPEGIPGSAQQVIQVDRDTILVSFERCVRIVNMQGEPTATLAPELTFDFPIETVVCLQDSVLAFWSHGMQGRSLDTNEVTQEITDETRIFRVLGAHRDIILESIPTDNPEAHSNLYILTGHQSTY

[5] = molecular target: eIF-2-alpha kinase GCN2 (Homo sapiens) (UniProt Q9P2K8); assay: Inhibition of GCN2 K2 labeling site in human Huh-7 cells at 10 uM by KiNativ Profiling analysis relative to control; format: cell-based
[6] = molecular target: Serine/threonine-protein kinase 32C (Homo sapiens) (UniProt Q86UX6); assay: Inhibition of YANK3 K2 labeling site in human Huh-7 cells at 10 uM by KiNativ Profiling analysis relative to control; format: cell-based
Sequence of Serine/threonine-protein kinase 32C (Homo sapiens) (Q86UX6 whole entry): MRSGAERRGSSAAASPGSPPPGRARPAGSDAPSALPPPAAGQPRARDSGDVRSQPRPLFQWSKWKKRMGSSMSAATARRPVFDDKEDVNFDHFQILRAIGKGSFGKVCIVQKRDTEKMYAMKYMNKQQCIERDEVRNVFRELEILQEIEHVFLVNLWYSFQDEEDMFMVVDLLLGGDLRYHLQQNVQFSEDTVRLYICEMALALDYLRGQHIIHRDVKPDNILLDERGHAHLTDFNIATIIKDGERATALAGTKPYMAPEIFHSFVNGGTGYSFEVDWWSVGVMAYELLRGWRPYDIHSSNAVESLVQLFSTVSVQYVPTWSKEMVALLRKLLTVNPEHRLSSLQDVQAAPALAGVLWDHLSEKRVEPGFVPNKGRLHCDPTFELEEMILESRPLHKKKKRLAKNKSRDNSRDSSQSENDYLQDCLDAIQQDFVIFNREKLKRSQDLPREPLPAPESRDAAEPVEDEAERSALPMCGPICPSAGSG

[7] = molecular target: Mitogen-activated protein kinase 9 (Homo sapiens, UniProt P45984); assay: Inhibition of JNK2 (unknown origin) at 10 uM by Ambit Kinomescan binding assay relative to control
Sequence of Mitogen-activated protein kinase 9 (P45984 whole entry, looked up): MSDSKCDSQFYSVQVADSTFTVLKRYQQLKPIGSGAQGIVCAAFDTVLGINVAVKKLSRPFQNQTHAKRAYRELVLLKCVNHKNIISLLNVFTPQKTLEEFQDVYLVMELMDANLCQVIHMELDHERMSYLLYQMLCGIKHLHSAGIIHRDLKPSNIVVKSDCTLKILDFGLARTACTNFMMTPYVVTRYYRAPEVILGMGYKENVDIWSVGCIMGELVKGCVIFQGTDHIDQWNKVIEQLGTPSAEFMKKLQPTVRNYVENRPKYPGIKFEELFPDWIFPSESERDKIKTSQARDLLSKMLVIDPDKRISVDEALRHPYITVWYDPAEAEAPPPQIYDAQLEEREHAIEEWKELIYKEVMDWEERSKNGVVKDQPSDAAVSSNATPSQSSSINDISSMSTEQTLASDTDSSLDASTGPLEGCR

[8] = molecular target: Activin receptor type-2A (Homo sapiens) (UniProt P27037); assay: Inhibition of ACVR2A (unknown origin) at 10 uM by Ambit Kinomescan binding assay
Sequence of Activin receptor type-2A (Homo sapiens) (P27037 whole entry): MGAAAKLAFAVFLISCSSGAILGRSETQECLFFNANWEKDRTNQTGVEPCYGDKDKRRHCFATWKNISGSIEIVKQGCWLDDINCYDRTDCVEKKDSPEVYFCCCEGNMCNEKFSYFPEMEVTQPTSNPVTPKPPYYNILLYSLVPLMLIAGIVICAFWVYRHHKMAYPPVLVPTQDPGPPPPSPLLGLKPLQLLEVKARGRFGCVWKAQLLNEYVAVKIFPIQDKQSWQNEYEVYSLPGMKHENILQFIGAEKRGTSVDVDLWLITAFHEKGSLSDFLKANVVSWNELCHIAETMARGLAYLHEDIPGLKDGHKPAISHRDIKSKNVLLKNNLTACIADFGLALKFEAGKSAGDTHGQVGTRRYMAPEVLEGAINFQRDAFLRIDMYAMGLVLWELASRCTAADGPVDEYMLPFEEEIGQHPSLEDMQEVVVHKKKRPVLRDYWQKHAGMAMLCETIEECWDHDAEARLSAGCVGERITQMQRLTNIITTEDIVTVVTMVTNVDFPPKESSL

[9] = molecular target: Serine/threonine-protein kinase 25 (Homo sapiens) (UniProt O00506); assay: Inhibition of YSK1 (unknown origin) at 10 uM by Ambit Kinomescan binding assay
Sequence of Serine/threonine-protein kinase 25 (Homo sapiens) (O00506 whole entry, looked up): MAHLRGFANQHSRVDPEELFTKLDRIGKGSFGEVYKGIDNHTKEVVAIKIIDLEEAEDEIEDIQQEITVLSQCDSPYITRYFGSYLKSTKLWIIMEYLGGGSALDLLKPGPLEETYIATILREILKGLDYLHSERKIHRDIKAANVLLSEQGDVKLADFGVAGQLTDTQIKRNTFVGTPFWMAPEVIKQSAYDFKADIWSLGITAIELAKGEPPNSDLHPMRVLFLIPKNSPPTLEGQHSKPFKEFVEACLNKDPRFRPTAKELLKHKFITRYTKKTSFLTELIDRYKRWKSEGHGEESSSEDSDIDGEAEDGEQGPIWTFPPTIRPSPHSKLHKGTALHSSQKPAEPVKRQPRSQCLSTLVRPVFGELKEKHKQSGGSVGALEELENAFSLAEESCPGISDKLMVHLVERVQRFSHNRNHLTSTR

[10] = molecular target: T2, Atrial natriuretic peptide receptor 2 (Homo sapiens) (UniProt P20594); assay: Inhibition of ANPb Lys2 labeling site in human A-375 cells at 0.05 uM by KiNativ Profiling analysis relative to control; format: cell-based
T2 sequence (whole entry): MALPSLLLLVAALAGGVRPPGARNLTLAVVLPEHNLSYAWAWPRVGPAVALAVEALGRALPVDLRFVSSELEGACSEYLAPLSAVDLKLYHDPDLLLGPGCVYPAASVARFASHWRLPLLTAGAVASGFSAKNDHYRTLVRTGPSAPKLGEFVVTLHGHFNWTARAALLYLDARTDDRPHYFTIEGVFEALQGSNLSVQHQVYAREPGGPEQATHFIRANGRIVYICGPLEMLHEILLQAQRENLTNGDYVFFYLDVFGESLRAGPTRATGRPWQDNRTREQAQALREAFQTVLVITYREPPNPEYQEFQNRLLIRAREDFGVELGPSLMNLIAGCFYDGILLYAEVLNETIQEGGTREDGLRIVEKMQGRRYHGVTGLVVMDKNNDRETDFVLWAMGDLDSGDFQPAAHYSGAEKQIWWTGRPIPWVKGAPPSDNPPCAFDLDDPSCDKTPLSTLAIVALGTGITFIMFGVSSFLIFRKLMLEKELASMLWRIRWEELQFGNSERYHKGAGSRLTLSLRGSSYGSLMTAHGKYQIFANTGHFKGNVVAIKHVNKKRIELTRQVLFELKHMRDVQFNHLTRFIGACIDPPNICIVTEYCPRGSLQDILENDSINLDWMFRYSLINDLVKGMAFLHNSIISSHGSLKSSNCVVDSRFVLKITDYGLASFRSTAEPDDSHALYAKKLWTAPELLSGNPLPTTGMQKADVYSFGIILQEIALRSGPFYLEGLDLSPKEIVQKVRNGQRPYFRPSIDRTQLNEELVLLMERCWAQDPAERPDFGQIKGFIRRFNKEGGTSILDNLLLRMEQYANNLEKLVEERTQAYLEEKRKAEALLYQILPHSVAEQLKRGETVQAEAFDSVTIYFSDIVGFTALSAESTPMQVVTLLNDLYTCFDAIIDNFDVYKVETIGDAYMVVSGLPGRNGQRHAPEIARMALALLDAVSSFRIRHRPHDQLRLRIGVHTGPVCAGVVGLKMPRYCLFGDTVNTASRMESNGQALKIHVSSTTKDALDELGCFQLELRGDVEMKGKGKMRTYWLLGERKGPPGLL

[11] = test system: Mast/stem cell growth factor receptor Kit (Homo sapiens), P10721 [V559D]; assay: Inhibition of KIT V559D mutant (unknown origin) at 1 uM by Ambit Kinomescan binding assay relative to control; values are per cent of control
Sequence of Mast/stem cell growth factor receptor Kit (Homo sapiens), P10721 [V559D] (P10721 whole entry V559D): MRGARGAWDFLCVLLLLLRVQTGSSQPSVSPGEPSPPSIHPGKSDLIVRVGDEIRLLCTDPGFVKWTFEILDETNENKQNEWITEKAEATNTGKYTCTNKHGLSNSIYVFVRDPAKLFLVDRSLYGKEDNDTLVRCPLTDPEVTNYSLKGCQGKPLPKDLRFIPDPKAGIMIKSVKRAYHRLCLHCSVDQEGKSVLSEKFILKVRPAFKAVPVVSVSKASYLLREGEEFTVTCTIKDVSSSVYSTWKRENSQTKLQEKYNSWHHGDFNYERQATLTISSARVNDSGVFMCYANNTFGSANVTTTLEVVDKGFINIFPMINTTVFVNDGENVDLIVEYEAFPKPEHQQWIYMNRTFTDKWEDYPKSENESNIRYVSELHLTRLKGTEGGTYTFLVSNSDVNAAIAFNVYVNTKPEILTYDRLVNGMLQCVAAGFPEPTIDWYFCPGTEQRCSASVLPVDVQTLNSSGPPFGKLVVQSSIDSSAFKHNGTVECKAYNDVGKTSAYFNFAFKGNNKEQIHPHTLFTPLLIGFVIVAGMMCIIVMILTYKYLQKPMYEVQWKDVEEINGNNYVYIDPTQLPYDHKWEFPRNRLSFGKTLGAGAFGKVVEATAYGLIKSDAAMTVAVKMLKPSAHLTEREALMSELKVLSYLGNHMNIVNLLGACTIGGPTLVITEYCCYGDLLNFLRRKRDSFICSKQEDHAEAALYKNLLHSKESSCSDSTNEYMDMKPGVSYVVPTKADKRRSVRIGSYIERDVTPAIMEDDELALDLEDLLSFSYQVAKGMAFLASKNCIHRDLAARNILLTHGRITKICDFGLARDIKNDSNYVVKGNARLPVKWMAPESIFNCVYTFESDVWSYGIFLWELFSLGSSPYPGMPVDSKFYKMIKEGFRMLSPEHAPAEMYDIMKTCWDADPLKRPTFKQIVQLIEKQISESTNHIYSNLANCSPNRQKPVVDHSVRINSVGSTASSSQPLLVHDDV

[12] = molecular target: Mitogen-activated protein kinase kinase kinase 9 (Homo sapiens) (UniProt P80192); assay: Inhibition of MLK1 (unknown origin) at 1 uM by Ambit Kinomescan binding assay relative to control; values are per cent of control
Sequence of Mitogen-activated protein kinase kinase kinase 9 (Homo sapiens) (P80192 whole entry, looked up): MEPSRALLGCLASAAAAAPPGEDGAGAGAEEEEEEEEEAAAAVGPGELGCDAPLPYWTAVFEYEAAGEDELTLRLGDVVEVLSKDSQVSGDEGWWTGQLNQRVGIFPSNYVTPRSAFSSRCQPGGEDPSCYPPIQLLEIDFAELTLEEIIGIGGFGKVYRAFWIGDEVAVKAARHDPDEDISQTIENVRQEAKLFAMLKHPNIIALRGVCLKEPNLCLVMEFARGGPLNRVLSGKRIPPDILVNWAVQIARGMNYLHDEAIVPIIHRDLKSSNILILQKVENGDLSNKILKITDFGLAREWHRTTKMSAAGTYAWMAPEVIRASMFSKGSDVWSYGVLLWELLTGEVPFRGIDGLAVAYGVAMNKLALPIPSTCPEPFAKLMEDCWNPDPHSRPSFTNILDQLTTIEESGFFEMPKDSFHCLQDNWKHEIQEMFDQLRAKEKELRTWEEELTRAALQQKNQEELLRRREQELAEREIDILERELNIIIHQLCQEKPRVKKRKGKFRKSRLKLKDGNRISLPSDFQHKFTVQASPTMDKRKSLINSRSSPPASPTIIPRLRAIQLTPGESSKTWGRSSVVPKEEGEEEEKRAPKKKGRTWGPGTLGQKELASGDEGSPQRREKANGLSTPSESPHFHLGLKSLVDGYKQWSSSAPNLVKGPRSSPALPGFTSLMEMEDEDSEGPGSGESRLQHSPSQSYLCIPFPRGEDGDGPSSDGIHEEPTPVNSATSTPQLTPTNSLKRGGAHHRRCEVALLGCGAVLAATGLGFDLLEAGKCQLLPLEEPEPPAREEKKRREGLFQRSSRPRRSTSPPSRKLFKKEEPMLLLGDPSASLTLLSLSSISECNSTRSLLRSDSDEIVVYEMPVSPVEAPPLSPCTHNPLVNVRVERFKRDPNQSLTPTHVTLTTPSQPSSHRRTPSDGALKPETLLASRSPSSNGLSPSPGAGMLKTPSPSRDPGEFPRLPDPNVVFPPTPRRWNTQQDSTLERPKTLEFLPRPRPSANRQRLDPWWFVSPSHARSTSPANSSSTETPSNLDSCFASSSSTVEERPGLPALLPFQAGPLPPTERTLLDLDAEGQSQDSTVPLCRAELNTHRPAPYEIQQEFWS

Work on CNc1cc(Oc2cc(C(=O)Nc3cc(N4CCN(C)CC4)cc(C(F)(F)F)c3)ccc2C)ncn1 yielded an inhibition [1] of -8.3%.

For CCN1CCN(Cc2ccc(NC(=O)c3ccc(C)c(Oc4ccnc5[nH]ccc45)c3)cc2C(F)(F)F)CC1, the inhibition [2] was 2.3%, the inhibition [3] was “inactive” and the inhibition [4] was 91.1%. For the same compound, the inhibition [5] was 14.7%, the inhibition [6] was 2.5% and the inhibition [7] was 0%. The inhibition [8] was “inactive” and the inhibition [9] was “inactive”.

In the case of CCN1CCN(Cc2ccc(NC(=O)c3ccc(C)c(/C=C/c4cnc5[nH]ccc5c4OC)c3)cc2C(F)(F)F)CC1, the inhibition [10] is reported as -8.7%, the residual activity [11] is reported as 0.05% and the residual activity [12] is reported as 4.7%.
